# According to ChEMBL document CHEMBL1134879, “3D-QSAR studies on 4-hydroxyphenylpyruvate dioxygenase inhibitors by comparative molecular field analysis (CoMFA)” (Bioorg Med Chem Lett, 2002):
# pIC50: −log10 of the molar value.
# Key:
# [1] = biological target: T1, 4-hydroxyphenylpyruvate dioxygenase (Sus scrofa, UniProt Q02110); experiment: Concentration required to achieve 50% inhibition against 4-Hydroxyphenylpyruvate dioxygenase (HPPD) from pig liver; (observed value)
# [2] = biological target: T1, 4-hydroxyphenylpyruvate dioxygenase; experiment: Concentration required to achieve 50% inhibition against 4-Hydroxyphenylpyruvate dioxygenase (HPPD) from pig liver
# [3] = biological target: T1, 4-hydroxyphenylpyruvate dioxygenase; experiment: Concentration required to achieve 50% inhibition against 4-hydroxyphenylpyruvate dioxygenase from pig liver; (observed value)
# [4] = biological target: T1, 4-hydroxyphenylpyruvate dioxygenase; experiment: Concentration required to achieve 50% inhibition against 4-hydroxyphenylpyruvate dioxygenase from pig liver
# T1 sequence (Q02110 whole entry): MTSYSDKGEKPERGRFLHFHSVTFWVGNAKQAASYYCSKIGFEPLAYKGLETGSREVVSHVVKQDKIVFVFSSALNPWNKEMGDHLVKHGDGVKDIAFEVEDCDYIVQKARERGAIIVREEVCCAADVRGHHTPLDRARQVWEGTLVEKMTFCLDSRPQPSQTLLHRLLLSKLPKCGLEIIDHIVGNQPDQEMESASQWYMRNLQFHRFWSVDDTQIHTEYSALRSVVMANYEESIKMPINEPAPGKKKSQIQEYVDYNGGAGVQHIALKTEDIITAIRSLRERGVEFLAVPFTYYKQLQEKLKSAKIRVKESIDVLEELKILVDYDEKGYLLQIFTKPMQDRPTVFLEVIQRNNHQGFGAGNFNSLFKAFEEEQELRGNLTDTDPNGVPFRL
Compound,pIC50 [1],pIC50 [2],pIC50 [3],pIC50 [4]
O=C1CCCC(=O)C1=C(O)c1ccccc1Cl,6.30,6.30,,
O=C1CCCC(O)=C1C(=O)C1CC1,,,5.22,5.22
O=C1CCCC(=O)C1=C(O)c1ccccc1Br,6.25,6.25,,
CCC(=O)C1=C(O)CCCC1=O,,,4.75,4.75
O=C1CCCC(=O)C1=C(O)c1ccccc1,4.95,4.95,,
Cc1ccccc1C(O)=C1C(=O)CCCC1=O,5.43,5.43,,
CS(=O)(=O)c1ccc(C(O)=C2C(=O)CCCC2=O)c(Cl)c1,,7.30,,
O=C1CCCC(=O)C1=C(O)c1ccccc1C(F)(F)F,6.60,6.60,,
O=C1CCCC(=O)C1=C(O)c1ccccc1I,6.12,6.12,,
COc1ccccc1C(O)=C1C(=O)CCCC1=O,4.93,4.93,,
O=C(Oc1cccc(O)c1)C1CC1,6.60,6.60,,

# Other lines, results leading:
pIC50 [1],pIC50 [2],pIC50 [3],pIC50 [4],Compound
7.15,7.15,,,O=C1C=C(OC(=O)C2CC2)CC1
7.40,7.40,,,CCOC(=O)C1CC(=O)C(C(=O)C2CC2)=C(OC(=O)C2CC2)C1 (stereo not drawn)
6.96,6.96,,,O=C(Oc1cc(=O)oc2ccccc12)C1CC1
7.70,7.70,,,O=C1CCCC(OC(=O)C2CC2)=C1Cl
7.05,7.05,,,CCOC(=O)C1CC(=O)C=C(OC(=O)C2CC2)C1 (stereo not drawn)
4.52,4.52,,,COC1=CC(=O)C(OC(=O)C2CC2)=CC1=O
6.48,6.48,,,CC1(C)CC(=O)C=C(OC(=O)C2CC2)C1
,,4.03,4.03,CC(C)C(=O)C1=C(O)CCCC1=O
7.52,7.52,,,O=C1CCCC(OC(=O)C2CC2)=C1Br
,,4.95,4.95,CC(=O)C1=C(O)CCCC1=O
,,3.44,3.44,O=C1CCCC(O)=C1C(=O)C1CCCCC1
